Kd data for 21 compounds are collected here from ChEMBL document CHEMBL1132794, “Structure-based design of six novel classes of nonpeptide antagonists of the bradykinin B2 receptor” (Bioorg Med Chem Lett, 2000).

Molecules are shown by their SMILES.

For one experiment, the target named is T1, B2 bradykinin receptor (Homo sapiens, UniProt P30411).
T1 sequence (P30411 whole entry): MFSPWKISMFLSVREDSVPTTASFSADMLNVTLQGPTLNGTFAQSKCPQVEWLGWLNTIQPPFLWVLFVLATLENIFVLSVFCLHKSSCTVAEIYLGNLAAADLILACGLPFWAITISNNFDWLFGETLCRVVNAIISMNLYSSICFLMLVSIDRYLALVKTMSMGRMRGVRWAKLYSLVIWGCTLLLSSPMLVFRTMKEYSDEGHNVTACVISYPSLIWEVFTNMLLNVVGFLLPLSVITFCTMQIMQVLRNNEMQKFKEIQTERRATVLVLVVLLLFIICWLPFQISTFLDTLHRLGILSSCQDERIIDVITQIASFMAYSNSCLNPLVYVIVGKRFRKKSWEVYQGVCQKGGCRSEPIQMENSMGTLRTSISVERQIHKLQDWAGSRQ
The experiment is described as follows: Compound was assayed for binding against the human Bradykinin receptor B2 expressed in CHO cells; 0.2-16.
Details: not given; call rule not given here
In kind it is cell-based.
A word on the Kd: it is the constant that tells how readily two partners part at equilibrium. A higher Kd goes with weaker binding. Compound `N=C(N)NCCC[C@@H]1NC(=O)N2C3CCCCC3C[C@H]2C(=O)N2Cc3ccccc3C[C@@H]2C(=O)NCC[C@@H](NC(=O)CCc2ccccc2)C(=O)CCNC1=O` (stereo partly specified) displayed a Kd of 0.2 µM.

Still in this experiment, the particulars now being: cho.
`NCCCC[C@@H]1NC(=O)[C@H](c2ccccc2)NC(=O)[C@H](CNC(=O)Cc2ccccc2)NC(=O)[C@H]2Cc3ccccc3CN2C(=O)[C@@H]2CC3CCCCC3N2C(=O)[C@H](CN)NC1=O` (stereo partly specified) returned a Kd of 0.2 µM.

Another experiment has as its target T1, B2 bradykinin receptor. Kind of experiment: Compound was assayed for binding against the human Bradykinin receptor B2 expressed in CHO cells; NA means Inactive. In kind it is cell-based.
Details: not given
Turning to `NCCCC[C@H](C(=O)NCc1ccc(CN)cc1)n1cccc1C(=O)NCCc1ccccc1`, the Kd entry is listed as “Not Active”.
Still for that read-out and setting: as for `NC[C@H]1C[C@@H](OCc2ccccc2)CN1C(=O)c1ccccc1`, the entry is “Not Active”; as for `N=C(N)NC[C@H]1C[C@@H](OCc2ccccc2)CN1C(=O)c1ccccc1`, “Not Active”.

The next experiment addresses T1, B2 bradykinin receptor. Kind of experiment: Compound was assayed for binding against the human Bradykinin receptor B2 expressed in CHO cells. The format is cell-based.
Details: not given
`NC(N)=NC[C@H]1C[C@@H](OCc2ccccc2)CN1C(=O)c1ccc2ccccc2c1` registered a Kd of 15 µM.
Still for that read-out and setting: next, `NCCCC[C@H](C(=O)NCc1ccc(CN)cc1)n1cccc1C(=O)NC(Cc1ccccc1)c1ccccc1` (stereo partly specified): 28 µM; `CCCCc1ccnc([C@H](CC2CCCCC2)NC(=O)CCCCN)c1`: 62 µM; `CCCCc1ccnc([C@H](CC2CCCCC2)NC(=O)c2ccc(CNC(=N)N)cc2)c1`: 5 µM.
Same read-out and setting: as for `NCCCN1C(=O)C(CCN)N=C(c2ccccc2)c2cc(N(Cc3ccccc3)Cc3ccccc3)ccc21` (stereo unspecified), the figure is 15 µM; as for `CCCCC1(CCCC)Oc2cccc(N(CCCN)C(=O)c3ccc(CN)cc3)c2O1`, 14 µM; as for `N=C(N)NCC1N=C(c2ccccc2)c2cc(N(Cc3ccccc3)Cc3ccccc3)ccc2N(CCCN=C(N)N)C1=O` (stereo unspecified), 12 µM.
Same read-out and setting: as for `NCc1ccc(CNC(=O)[C@@H](CN)n2cccc2CNC(=O)CC2CCCCC2)cc1`, the figure is 101 µM; as for `NCCCN1C(=O)C(CN)N=C(c2ccccc2)c2cc(N(Cc3ccccc3)Cc3ccccc3)ccc21` (stereo unspecified), 4.3 µM; as for `CCCCc1ccnc([C@H](CC2CCCCC2)NC(=O)c2ccc(CN)cc2)c1`, 7.4 µM.
Consider `NCc1cccc(Cn2ccc3c2C(=O)C(Cc2ccccc2)(Cc2ccccc2)CC3)c1`, for which the Kd came to 7.6 µM.
The same measure, in the same setting: as for `CCCCC1(CCCC)Oc2cccc(NC(=O)c3ccc(CN)cc3)c2O1`, the figure is 13 µM.
The same measure, in the same setting: next, `NCc1ccc(CNC(=O)[C@@H](CN)n2cccc2CNC(=O)C(c2ccccc2)C2CCCCC2)cc1` (stereo partly specified): 17 µM; `N=C(N)NCCC1N=C(c2ccccc2)c2cc(N(Cc3ccccc3)Cc3ccccc3)ccc2N(CCCN=C(N)N)C1=O` (stereo unspecified): 4.5 µM.
Still for that read-out and setting: next, `NC[C@H]1C[C@@H](OCc2ccccc2)CN1C(=O)c1ccc2ccccc2c1`: 66 µM; `CCCCc1ccnc([C@H](CC2CCCCC2)NC(=O)CCCCN(CCCC)CCCC)c1`: 23 µM.
